Laboratory results: patent publication US7135466B2 (Kirin Beer Kabushiki Kaisha, priority 1999, dated 2006)
Read-outs that look alike come from different tables or passages of the source.

Key:
PDGF-Ra = target: T1, PDGF-Ra (Homo sapiens, UniProt P16234); assay: Inhibitory activity against PDGF-Ra phosphorylation by PDGF-AA stimulation using G292; format: cell-based; settings: for IC50: > means inhibition at indicated concentration not more than 50%, < and << not less than 50%, read-out: PDGF (E) IC50; for inhibition at 0.1 µM: G292, at 100 nM, read-out: PDGF (E) inhibition (%) at 100 nM
T1 construct: host or cells: G-292 human osteosarcoma cells
T1 sequence (P16234 24-1089): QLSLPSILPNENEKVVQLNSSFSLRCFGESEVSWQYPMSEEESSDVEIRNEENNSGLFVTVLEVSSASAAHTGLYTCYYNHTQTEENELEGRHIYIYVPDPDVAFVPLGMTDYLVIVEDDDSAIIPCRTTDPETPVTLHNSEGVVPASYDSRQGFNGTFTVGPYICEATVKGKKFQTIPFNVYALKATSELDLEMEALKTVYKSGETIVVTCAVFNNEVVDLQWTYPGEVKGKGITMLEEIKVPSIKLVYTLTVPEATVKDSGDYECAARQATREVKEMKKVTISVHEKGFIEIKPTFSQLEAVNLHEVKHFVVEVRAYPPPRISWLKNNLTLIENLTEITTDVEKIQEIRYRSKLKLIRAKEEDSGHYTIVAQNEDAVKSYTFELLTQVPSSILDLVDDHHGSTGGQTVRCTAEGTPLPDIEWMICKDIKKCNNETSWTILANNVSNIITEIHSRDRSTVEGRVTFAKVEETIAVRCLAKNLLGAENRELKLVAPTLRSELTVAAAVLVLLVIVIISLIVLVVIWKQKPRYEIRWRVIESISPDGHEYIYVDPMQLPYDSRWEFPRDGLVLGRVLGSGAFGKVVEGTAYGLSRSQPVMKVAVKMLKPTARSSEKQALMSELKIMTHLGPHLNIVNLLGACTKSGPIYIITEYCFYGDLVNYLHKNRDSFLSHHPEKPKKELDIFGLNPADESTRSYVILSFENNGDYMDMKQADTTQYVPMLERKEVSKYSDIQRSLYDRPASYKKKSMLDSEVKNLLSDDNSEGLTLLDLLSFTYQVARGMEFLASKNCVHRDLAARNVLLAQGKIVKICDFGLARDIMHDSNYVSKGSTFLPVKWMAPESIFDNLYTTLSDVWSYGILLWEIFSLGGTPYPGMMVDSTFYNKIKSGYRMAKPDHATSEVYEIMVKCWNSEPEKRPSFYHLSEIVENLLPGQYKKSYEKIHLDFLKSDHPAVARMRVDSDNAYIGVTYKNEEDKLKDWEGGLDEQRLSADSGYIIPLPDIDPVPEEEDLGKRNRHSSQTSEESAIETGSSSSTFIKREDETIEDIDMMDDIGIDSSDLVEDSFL
Outline: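 Human osteosarcoma G-292, 0.1% FBS o/n; cpd (DMSO) 1 h 37 °C; PDGF-AA 50 ng/ml 5 min; lyse 20 min RT; PY-20 capture 4 °C o/n; anti-PDGF-Ra + HRP-GAR; OD450.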

c-kit = target: T2, c-kit (Homo sapiens, UniProt P10721); assay: Inhibitory activity against c-kit autophosphorylation (MO7e cells, h-SCF); format: cell-based; settings: for IC50: MO7e cells, read-out: c-kit IC50; for inhibition at 1 µM: Mo7e, figure in parentheses in −( ), at 1000 nM
T2 construct: MO7e (human megakaryocytic leukemia cell line) which had been arrested for 20 hr; endogenous in cells; host or cells: MO7e human megakaryocytic leukemia cell line
T2 sequence (P10721 26-976): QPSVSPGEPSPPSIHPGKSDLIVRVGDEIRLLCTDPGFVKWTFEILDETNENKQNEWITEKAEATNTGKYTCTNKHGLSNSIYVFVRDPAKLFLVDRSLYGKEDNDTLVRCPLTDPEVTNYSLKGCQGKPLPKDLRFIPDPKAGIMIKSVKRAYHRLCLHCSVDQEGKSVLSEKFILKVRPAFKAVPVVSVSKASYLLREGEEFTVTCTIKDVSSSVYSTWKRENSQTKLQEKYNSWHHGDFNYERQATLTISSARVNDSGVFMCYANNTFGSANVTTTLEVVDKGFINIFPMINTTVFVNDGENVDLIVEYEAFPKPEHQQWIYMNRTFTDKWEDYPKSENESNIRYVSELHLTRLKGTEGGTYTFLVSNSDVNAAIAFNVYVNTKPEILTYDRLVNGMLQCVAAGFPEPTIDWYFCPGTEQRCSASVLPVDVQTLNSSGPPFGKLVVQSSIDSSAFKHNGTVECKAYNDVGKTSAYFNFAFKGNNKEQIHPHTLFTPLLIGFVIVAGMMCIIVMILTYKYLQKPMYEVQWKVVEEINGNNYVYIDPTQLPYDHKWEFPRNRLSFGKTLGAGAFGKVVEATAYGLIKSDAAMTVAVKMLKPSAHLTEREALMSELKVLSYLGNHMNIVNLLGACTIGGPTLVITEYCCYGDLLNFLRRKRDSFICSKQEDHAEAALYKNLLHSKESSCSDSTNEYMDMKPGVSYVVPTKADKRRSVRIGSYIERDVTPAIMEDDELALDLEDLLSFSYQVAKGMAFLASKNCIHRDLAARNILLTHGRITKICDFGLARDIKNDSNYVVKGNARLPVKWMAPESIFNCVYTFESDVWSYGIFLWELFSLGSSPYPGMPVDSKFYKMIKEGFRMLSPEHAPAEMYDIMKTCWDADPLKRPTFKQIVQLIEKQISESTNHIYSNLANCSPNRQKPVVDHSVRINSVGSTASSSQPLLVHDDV
Outline: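 MO7e cells, arrested for 20 hr, were pretreated with test compound in DMSO for 1 hr and then stimulated with 50 ng/ml h-SCF for 5 min before lysis. Lysates were captured on immobilized anti-phosphotyrosine PY-20, probed with anti-c-kit antibody and HRP anti-rabbit IgG, and read colorimetrically at 450 nm.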

[1] = figure within parentheses in >100( )
[2] = figure in parentheses in >100( )

Compound: CCCCC(=O)NC(=S)Nc1ccc(Oc2ccnc3cc(OC)c(OC)cc23)c(Cl)c1 [Example 719, N-{3-Chloro-4-[(6,7-dimethoxy-4-quinolyl)oxy]phenyl}-N′-pentanoylthiourea]
- IC50 (PDGF-Ra): 14 nM
- IC50 (c-kit; 50 ng/ml h-SCF): 431 nM

Compound: CCN(CCNC(=O)Nc1cc(C)c(Oc2ccnc3cc(OC)c(OC)cc23)cc1C)c1cccc(C)c1 [Example 662, N-{4-[(6,7-Dimethoxy-4-quinolyl)oxy]-2,5-dimethylphenyl}-N′-[2-(ethyl-3-methylanilino)ethyl]urea]
- IC50 (PDGF-Ra): 23 nM
- IC50 (c-kit; 50 ng/ml h-SCF): 296 nM

Compound: CCCCOC(=O)Nc1cc(C)c(Oc2ccnc3cc(OC)c(OC)cc23)cc1C [Example 322, Butyl N-{4-[(6,7-dimethoxy-4-quinolyl)oxy]-2,5-dimethylphenyl}carbamate]
- IC50 (PDGF-Ra; Pharmacological Test Example 1): < 10 nM
- IC50 (c-kit; h-SCF 50 ng/ml): 60 nM

Compound: COc1cc2nccc(Oc3ccc(NC(=O)OCc4ccc(C)cc4)c(C)c3C)c2cc1OC [Example 234, 4-Methylbenzyl N-{4-[(6,7-dimethoxy-4-quinolyl)oxy]-2,3-dimethylphenyl}carbamate]
- IC50 (PDGF-Ra; Pharmacological Test Example 1): 10 nM
- IC50 (c-kit; h-SCF 50 ng/ml): 46 nM

Compound: CCN(C(=O)OC1CCCCCC1)c1ccc(Oc2ncnc3cc(OC)c(OC)cc23)cc1Cl [Example 489, Cycloheptyl N-{2-chloro-4-[(6,7-dimethoxy-4-quinazolinyl)oxy]phenyl}-N-ethylcarbamate]
- IC50 (PDGF-Ra): 58 nM
- IC50 (c-kit; 50 ng/ml h-SCF): 637 nM

Compound: COc1cc2nccc(Oc3ccc(NC(=O)Oc4ccccc4C(C)(C)C)cc3)c2cc1OC [Example 300]
- IC50 (PDGF-Ra; Pharmacological Test Example 1): < 10 nM
- inhibition at 1 µM (c-kit): 43%

Compound: CCCC(CCN1CCN(C)CC1)OC(=O)Nc1ccc(Oc2ccnc3cc(OC)c(OC)cc23)cc1 (stereo not shown) [Example 449, 1-[2-(4-Methylpiperazino)ethyl]butyl N-{4-[(6,7-dimethoxy-4-quinolyl)oxy]phenyl}carbamate]
- IC50 (PDGF-Ra): > 100 nM
- inhibition at 0.1 µM (PDGF-Ra; [1]): 26%
- IC50 (c-kit; 50 ng/ml h-SCF): 747 nM

Compound: COc1cc2nccc(Oc3ccc(NC(=O)OCCc4cccc(C(F)(F)F)c4)cc3)c2cc1OC [Example 82, 3-(Trifluoromethyl)phenethyl N-{4-[(6,7-dimethoxy-4-quinolyl)oxy]phenyl}carbamate]
- IC50 (PDGF-Ra; Pharmacological Test Example 1): 10 nM
- IC50 (c-kit; h-SCF 50 ng/ml): 176 nM

Compound: COc1cc2nccc(Oc3ccc(NC(=S)NC(=O)c4cccc(C)c4C)cc3)c2cc1OC [Example 1005, N-{4-[(6,7-Dimethoxy-4-quinolyl)oxy]phenyl}-N′-(2,3-dimethylbenzoyl)thiourea]
- IC50 (PDGF-Ra): 28 nM
- IC50 (c-kit; h-SCF stimulation): 674 nM

Compound: N-{4-[(6,7-Dimethoxy-4-quinolyl)oxy]-2-chlorophenyl}-N′-[4-(N-benzyl)piperidinyl]urea [Example 605]
- IC50 (PDGF-Ra): 31 nM
- IC50 (c-kit; 50 ng/ml h-SCF): 394 nM

Compound: COc1cc2ncnc(Oc3ccc(NC(=O)OCc4ccc(C(F)(F)F)cc4)c(Cl)c3)c2cc1OC [Example 25, 4-(Trifluoromethyl)benzyl N-{2-chloro-4-[(6,7-dimethoxy-4-quinazolinyl)oxy]phenyl}carbamate]
- IC50 (PDGF-Ra; Pharmacological Test Example 1): < 10 nM
- IC50 (c-kit; h-SCF 50 ng/ml): 566 nM

Compound: COc1cc2nccc(Oc3ccc(NC(=S)NC(=O)CCc4ccccc4)cc3F)c2cc1OC [Example 1028, N-{4-[(6,7-Dimethoxy-4-quinolyl)oxy]-3-fluorophenyl}-N′-(3-phenylpropanoyl)thiourea]
- IC50 (PDGF-Ra): < 10 nM
- IC50 (c-kit; h-SCF stimulation): 545 nM

Compound: COc1cc2nccc(Oc3ccc(OCCCOc4ccc(C)cc4)cc3)c2cc1OC [Example 790, 6,7-Dimethoxy-4-{4-[3-(4-methylphenoxy)propoxy]phenoxy}quinoline]
- IC50 (PDGF-Ra): < 3 nM
- IC50 (c-kit; 50 ng/ml h-SCF): 107 nM

Compound: COc1cc2nccc(Oc3ccc(NC(=S)NC(=O)Cc4ccccc4)cc3)c2cc1OC [Example 1022, N-{4-[(6,7-Dimethoxy-4-quinolyl)oxy]phenyl}-N′-(2-phenylacetyl)thiourea]
- IC50 (PDGF-Ra): 28 nM
- IC50 (c-kit; h-SCF stimulation): 202 nM

Compound: COc1cccc(NC(=O)COc2ccc(Oc3ncnc4cc(OC)c(OC)cc34)cc2)c1 [Example 800, N1-(3-Methoxyphenyl)-2-{4-[(6,7-dimethoxy-4-quinazolinyl)oxy]phenoxy}acetamide]
- IC50 (PDGF-Ra): < 10 nM
- IC50 (c-kit; 50 ng/ml h-SCF): 30 nM

Compound: CCCC(CCN1CCOCC1)OC(=O)Nc1cc(C)c(Oc2ccnc3cc(OC)c(OC)cc23)cc1C (stereo not shown) [Example 438, 1-(2-Morpholinoethyl)butyl N-{4-[(6,7-dimethoxy-4-quinolyl)oxy]-2,5-dimethylphenyl}carbamate]
- IC50 (PDGF-Ra): > 100 nM
- inhibition at 0.1 µM (PDGF-Ra; [1]): 41%
- IC50 (c-kit; 50 ng/ml h-SCF): 414 nM

Compound: COc1cc(Oc2ncnc3cc(OC)c(OC)cc23)ccc1NC(=O)NCCN1CCCC1 [Example 632, N-{4-[(6,7-Dimethoxy-4-quinazolinyl)oxy]-2-methoxyphenyl}-N′-(2-tetrahydro-1H-1-pyrrolylethyl)urea]
- IC50 (PDGF-Ra): 36 nM
- IC50 (c-kit; 50 ng/ml h-SCF): 223 nM

Compound: COc1cc2nccc(Oc3ccc(NC(=S)NC(=O)c4ccccc4OC)c(Cl)c3)c2cc1OC [Example 1103, N-{2-Chloro-4-[(6,7-dimethoxy-4-quinolyl)oxy]phenyl}-N′-(2-methoxybenzoyl)thiourea]
- IC50 (PDGF-Ra): > 100 nM
- inhibition at 0.1 µM (PDGF-Ra; [2]): 25%
- inhibition at 1 µM (c-kit): 3%

Compound: COc1cc2ncnc(Oc3ccc(NC(=S)NC(=O)CCc4cccc(C)c4)cc3)c2cc1OC [Example 1185, N-{4-[(6,7-Dimethoxy-4-quinazolinyl)oxy]phenyl}-N′-[3-(3-methylphenyl)propanoyl]thiourea]
- IC50 (PDGF-Ra): 13 nM
- inhibition at 1 µM (c-kit): 26%

Compound: COc1cc2ncnc(Oc3ccc(NC(=O)OCCSc4cc(C)ccc4C)cc3)c2cc1OC [Example 168, 2-[(2,5-Dimethylphenyl)sulfanyl]ethyl N-{4-[(6,7-dimethoxy-4-quinazolinyl)oxy]phenyl}carbamate]
- IC50 (PDGF-Ra; Pharmacological Test Example 1): 15 nM
- IC50 (c-kit; h-SCF 50 ng/ml): 52 nM

Compound: COc1cc2ncnc(Oc3ccc(NC(=O)OCCCOc4ccccc4Cl)cc3)c2cc1OC [Example 19, 3-(2-Chlorophenoxy)propyl N-{4-[(6,7-dimethoxy-4-quinazolinyl)oxy]phenyl}carbamate]
- IC50 (PDGF-Ra; Pharmacological Test Example 1): < 10 nM
- IC50 (c-kit; h-SCF 50 ng/ml): 41 nM

Compound: COc1cc2nccc(Oc3cc(C)c(NC(=O)OCCN4CCOCC4)cc3C)c2cc1OC [Example 307, 2-Morpholinoethyl N-{4-[(6,7-dimethoxy-4-quinolyl)oxy]-2,5-dimethylphenyl}carbamate]
- inhibition at 0.1 µM (PDGF-Ra; [2]): 49%
- IC50 (PDGF-Ra; Pharmacological Test Example 1): > 100 nM
- IC50 (c-kit; h-SCF 50 ng/ml): 165 nM

Compound: COc1cc2nccc(Oc3ccc(NC(=O)OCc4ccccc4Cl)c(C)c3C)c2cc1OC [Example 235, 2-Chlorobenzyl N-{4-[(6,7-dimethoxy-4-quinolyl)oxy]-2,3-dimethylphenyl}carbamate]
- IC50 (PDGF-Ra; Pharmacological Test Example 1): < 3 nM
- IC50 (c-kit; h-SCF 50 ng/ml): 57 nM

Compound: CCN(CCNC(=O)Nc1ccc(Oc2ccnc3cc(OC)c(OC)cc23)cc1[N+](=O)[O-])c1cccc(C)c1 [Example 666, N-{4-[(6,7-Dimethoxy-4-quinolyl)oxy]-2-nitrophenyl}-N′-[2-(ethyl-3-methylanilino)ethyl]urea]
- IC50 (PDGF-Ra): 10 nM
- IC50 (c-kit; 50 ng/ml h-SCF): 134 nM

Compound: COc1cc2nccc(Oc3cc(C)c(NC(=O)Oc4ccc(C(C)(C)C)cc4)cc3C)c2cc1OC [Example 274, 4-(Tert-butyl)phenyl N-{4-[(6,7-dimethoxy-4-quinolyl)oxy]-2,5-dimethylphenyl}carbamate]
- IC50 (PDGF-Ra; Pharmacological Test Example 1): 25 nM
- IC50 (c-kit; h-SCF 50 ng/ml): 399 nM

Compound: COc1cc2nccc(Oc3ccc(NC(=O)OCC4CCCCCC4)c(C)c3C)c2cc1OC [Example 350, Cycloheptylmethyl N-{4-[(6,7-dimethoxy-4-quinolyl)oxy]-2,3-dimethylphenyl}carbamate]
- IC50 (PDGF-Ra; Pharmacological Test Example 1): < 10 nM
- IC50 (c-kit; h-SCF 50 ng/ml): 238 nM

Compound: CCCCCC(C)OC(=O)Nc1ccc(Oc2ccnc3cc(OC)c(OC)cc23)c(C)c1C (stereo not shown) [Example 413, 1-Methylhexyl N-{4-[(6,7-dimethoxy-4-quinolyl)oxy]-2,3-dimethylphenyl}carbamate]
- IC50 (PDGF-Ra): 39 nM
- IC50 (c-kit; 50 ng/ml h-SCF): 50 nM

Compound: COc1cc2nccc(Oc3cc(C)c(NC(=O)OCCN4CCCCC4)cc3C)c2cc1OC [Example 304, 2-Piperidinoethyl N-{4-[(6,7-dimethoxy-4-quinolyl)oxy]-2,5-dimethylphenyl}carbamate]
- IC50 (PDGF-Ra; Pharmacological Test Example 1): 63 nM
- IC50 (c-kit; h-SCF 50 ng/ml): 401 nM

Compound: CCCCC(CC)OC(=O)Nc1ccc(Oc2ncnc3cc(OC)c(OC)cc23)cc1 (stereo not shown) [Example 401, 1-Ethylpentyl N-{4-[(6,7-dimethoxy-4-quinazolinyl)oxy]phenyl}carbamate]
- IC50 (PDGF-Ra): < 10 nM
- IC50 (c-kit; 50 ng/ml h-SCF): 586 nM

Compound: COc1cc2nccc(Oc3ccc(NC(=O)OC4CCCN(C)C4)cc3)c2cc1OC (stereo not shown) [Example 462, 1-Methyl-3-piperidyl N-{4-[(6,7-dimethoxy-4-quinolyl)oxy]phenyl}carbamate]
- IC50 (PDGF-Ra): 52 nM
- IC50 (c-kit; 50 ng/ml h-SCF): 575 nM

Compound: COc1cc2nccc(Oc3ccc(NC(=O)OCCN4CCCCC4)c(C)c3C)c2cc1OC [Example 305, 2-Piperidinoethyl N-{4-[(6,7-dimethoxy-4-quinolyl)oxy]-2,3-dimethylphenyl}carbamate]
- IC50 (PDGF-Ra; Pharmacological Test Example 1): 11 nM
- IC50 (c-kit; h-SCF 50 ng/ml): 221 nM

Compound: COc1cc2nccc(Oc3ccc(NC(=S)NC(=O)C4CC4c4ccccc4)cc3)c2cc1OC (stereo not shown) [Example 1055, N-{4-[(6,7-Dimethoxy-4-quinolyl)oxy]phenyl}-N′-[(2-phenylcyclopropyl)carbonyl]thiourea]
- IC50 (PDGF-Ra): 16 nM
- IC50 (c-kit; h-SCF stimulation): 312 nM

Compound: CCCOC(=O)Nc1ccc(Oc2ccnc3cc(OC)c(OC)cc23)cc1 [Example 247, Propyl N-{4-[(6,7-dimethoxy-4-quinolyl)oxy]phenyl}carbamate]
- IC50 (PDGF-Ra; Pharmacological Test Example 1): 3 nM
- IC50 (c-kit; h-SCF 50 ng/ml): 40 nM
